Assay results published in patent US6573293B2, “Pyrrole substituted 2-indolinone protein kinase inhibitors” (Sugen, Inc., priority 2000, dated 2003).

Key:
[1] = target: T1, HER-2 kinase (Homo sapiens, UniProt P04626); assay: Cellular HER-2 kinase assay; type: cell-based; details: read-out: Her2 Kinase IC50
T1 construct: Use EGFr/HER-2 chimera/3T3-C7 cell line for this assay; It is expressed in mouse NIH 3T3 clone C7 cells; P00533 (Epidermal growth factor receptor)

[2] = target: T2, EGFR (Homo sapiens, UniProt P00533); assay: EGFR bioassay (bio EGF); type: biochemical
T2 construct: A431 cell lysate (SUGEN, Inc.); host or cells: A431

[3] = target: T3, GST-Flk1 (Mus musculus, UniProt P35918); assay: GST-FLK-1 bioassay (bio flkGST); type: biochemical
T3 construct: GST-Flk1cd purified from sf9 recombinant baculovirus transformation; host or cells: Sf9 (baculovirus)

[4] = target: T4, PDGFR-β (Homo sapiens, UniProt P09619); assay: PDGFR bioassay (bio PDGF); type: biochemical
T4 construct: host or cells: NIH 3T3
T4 sequence (P09619 33-1106): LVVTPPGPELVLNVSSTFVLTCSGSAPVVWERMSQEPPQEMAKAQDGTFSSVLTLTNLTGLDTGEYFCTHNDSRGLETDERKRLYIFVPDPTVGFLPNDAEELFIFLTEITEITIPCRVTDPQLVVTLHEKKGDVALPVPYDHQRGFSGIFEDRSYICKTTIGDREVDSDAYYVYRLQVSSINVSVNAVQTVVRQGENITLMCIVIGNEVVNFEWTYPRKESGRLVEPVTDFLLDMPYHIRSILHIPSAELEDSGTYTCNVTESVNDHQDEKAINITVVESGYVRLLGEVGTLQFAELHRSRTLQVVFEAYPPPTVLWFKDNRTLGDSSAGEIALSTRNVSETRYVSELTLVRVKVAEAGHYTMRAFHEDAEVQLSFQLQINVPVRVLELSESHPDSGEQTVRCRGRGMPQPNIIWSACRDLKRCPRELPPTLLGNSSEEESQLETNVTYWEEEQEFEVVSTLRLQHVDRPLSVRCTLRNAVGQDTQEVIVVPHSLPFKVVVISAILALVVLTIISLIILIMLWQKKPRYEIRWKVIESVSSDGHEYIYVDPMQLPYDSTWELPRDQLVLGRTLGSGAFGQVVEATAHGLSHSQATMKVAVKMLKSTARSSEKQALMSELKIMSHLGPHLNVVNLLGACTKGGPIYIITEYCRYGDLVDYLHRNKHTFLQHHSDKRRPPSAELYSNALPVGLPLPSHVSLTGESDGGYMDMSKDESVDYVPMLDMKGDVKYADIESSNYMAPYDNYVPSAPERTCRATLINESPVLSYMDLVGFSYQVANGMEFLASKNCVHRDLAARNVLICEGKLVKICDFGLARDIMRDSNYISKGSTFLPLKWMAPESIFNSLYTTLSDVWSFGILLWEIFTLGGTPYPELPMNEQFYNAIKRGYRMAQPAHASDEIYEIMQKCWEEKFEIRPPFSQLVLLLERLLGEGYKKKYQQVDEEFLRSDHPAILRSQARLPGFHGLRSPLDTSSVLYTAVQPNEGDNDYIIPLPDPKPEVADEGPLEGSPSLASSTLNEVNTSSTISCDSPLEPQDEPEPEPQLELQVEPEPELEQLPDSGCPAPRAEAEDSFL

T1 sequence (P04626 720-987 limits assumed): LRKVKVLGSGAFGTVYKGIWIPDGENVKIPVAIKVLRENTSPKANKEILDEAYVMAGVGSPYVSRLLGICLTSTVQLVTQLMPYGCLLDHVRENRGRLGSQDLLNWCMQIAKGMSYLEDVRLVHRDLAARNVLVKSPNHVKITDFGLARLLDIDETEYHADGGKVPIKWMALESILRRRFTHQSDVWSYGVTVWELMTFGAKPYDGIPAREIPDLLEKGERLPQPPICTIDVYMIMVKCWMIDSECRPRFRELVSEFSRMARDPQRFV
T2 sequence (P00533 25-1210): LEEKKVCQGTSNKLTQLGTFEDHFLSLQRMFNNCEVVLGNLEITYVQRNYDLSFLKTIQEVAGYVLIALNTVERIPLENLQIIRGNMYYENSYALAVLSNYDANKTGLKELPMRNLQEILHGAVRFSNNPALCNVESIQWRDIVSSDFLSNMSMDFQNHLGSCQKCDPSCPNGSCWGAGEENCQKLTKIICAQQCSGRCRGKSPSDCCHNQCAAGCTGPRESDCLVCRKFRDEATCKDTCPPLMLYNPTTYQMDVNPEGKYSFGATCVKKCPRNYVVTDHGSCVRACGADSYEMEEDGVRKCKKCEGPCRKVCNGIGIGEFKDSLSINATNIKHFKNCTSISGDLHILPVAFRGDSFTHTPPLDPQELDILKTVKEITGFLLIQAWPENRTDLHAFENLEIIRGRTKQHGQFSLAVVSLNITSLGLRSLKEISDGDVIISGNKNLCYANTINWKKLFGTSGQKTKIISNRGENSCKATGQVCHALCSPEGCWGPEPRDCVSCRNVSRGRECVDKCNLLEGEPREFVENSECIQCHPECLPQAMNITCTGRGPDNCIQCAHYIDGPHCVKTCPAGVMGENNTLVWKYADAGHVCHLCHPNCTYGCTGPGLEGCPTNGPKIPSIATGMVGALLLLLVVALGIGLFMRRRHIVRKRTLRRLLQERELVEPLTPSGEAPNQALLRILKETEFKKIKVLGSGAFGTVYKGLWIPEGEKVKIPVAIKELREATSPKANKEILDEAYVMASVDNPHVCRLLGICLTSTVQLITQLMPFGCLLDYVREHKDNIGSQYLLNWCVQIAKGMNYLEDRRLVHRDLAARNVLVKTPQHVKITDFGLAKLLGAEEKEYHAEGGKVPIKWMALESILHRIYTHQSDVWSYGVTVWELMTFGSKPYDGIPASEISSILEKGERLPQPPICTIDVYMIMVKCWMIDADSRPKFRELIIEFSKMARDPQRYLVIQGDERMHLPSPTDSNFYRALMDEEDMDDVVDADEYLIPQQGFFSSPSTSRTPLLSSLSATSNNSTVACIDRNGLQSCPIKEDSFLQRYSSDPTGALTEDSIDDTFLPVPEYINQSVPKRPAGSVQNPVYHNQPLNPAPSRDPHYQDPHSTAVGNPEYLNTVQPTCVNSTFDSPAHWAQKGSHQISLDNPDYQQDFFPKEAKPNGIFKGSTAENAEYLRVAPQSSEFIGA
T3 sequence (P35918 784-1345 limits assumed): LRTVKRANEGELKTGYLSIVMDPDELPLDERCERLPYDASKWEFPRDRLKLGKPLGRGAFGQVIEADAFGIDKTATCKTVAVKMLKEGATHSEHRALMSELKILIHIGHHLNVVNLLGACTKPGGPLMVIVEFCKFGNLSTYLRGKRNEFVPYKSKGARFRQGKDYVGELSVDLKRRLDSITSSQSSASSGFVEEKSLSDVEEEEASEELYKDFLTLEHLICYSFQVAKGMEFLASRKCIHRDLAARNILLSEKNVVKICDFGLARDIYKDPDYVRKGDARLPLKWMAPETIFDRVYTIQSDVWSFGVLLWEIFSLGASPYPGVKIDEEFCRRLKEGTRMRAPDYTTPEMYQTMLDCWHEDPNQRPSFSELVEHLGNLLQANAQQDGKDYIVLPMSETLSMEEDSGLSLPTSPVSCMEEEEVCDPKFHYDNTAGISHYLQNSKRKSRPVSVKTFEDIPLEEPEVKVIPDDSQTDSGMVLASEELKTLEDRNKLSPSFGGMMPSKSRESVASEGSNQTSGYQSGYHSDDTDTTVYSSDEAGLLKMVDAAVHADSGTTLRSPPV

| IC50 [1] [µM] | IC50 [2] [µM] | IC50 [3] [µM] | IC50 [4] [µM] | Structure (SMILES) |
| --- | --- | --- | --- | --- |
| 98.6 | – | – | – | CCN(CC)CCCNC(=O)c1[nH]c(/C=C2\C(=O)Nc3ccc(OC)cc32)cc1C [Example 15, 5-(5-Methoxy-2-oxo-1,2-dihydroindol-3-ylidenemethyl)-3-methyl-1H-pyrrole-2-carboxylic acid (3-diethylaminopropyl)amide] |
| 7.9 | 23.5 | 12.6 | – | Cc1c(C(=O)NCCCN2CCCC2)[nH]c(/C=C2\C(=O)Nc3cc(-c4ccccc4)ccc32)c1C(=O)c1ccccc1 [Example 25, 4-Benzoyl-3-methyl-5-(2-oxo-6-phenyl-1,2-dihydroindol-3-ylidenemethyl)-1H-pyrrole-2-carboxylic acid (3-pyrrolidin-1-ylpropyl)amide] |
| 87.7 | – | – | – | Cc1c(C(=O)NCCCN2CCOCC2)[nH]c(/C=C2\C(=O)Nc3ccc(Br)cc32)c1C(=O)c1ccccc1 [Example 22, 4-Benzoyl-5-(5-bromo-2-oxo-1,2-dihydroindol-3-ylidenemethyl)-3-methyl-1H-pyrrole-2-carboxylic acid (3-morpholin-4-ylpropyl)amide] |
| – | – | 8 | 8.32 | CCN(CC)CCNC(=O)c1c(C)[nH]c(/C=C2\C(=O)Nc3cc(-c4cc(Cl)cc(Cl)c4)ccc32)c1C [Example 62, 5-[6-(3,5-Dichloro-phenyl)-2-oxo-1,2-dihydroindol-3-ylidenemethyl]-2,4-dimethyl-1H-pyrrole-3-carboxylic acid (2-diethylaminoethyl)amide] |
| 9.91 | – | 15.2 | 22.5 | CCN(CC)CCNC(=O)c1c(C(C)C)[nH]c(/C=C2\C(=O)Nc3ccc(Br)cc32)c1C(C)C [Example 71, 5-(5-Bromo-2-oxo-1,2-dihydroindol-3-ylidenemethyl)-2,4-diisopropyl-1H-pyrrole-3-carboxylic acid (2-diethylaminoethyl)amide] |
| 10 | 34.7 | 16 | 66.9 | COc1ccc2c(c1)NC(=O)/C2=C\c1[nH]c(C(=O)NCCCN2CCCC2)c(C)c1C(=O)c1ccccc1 [Example 26, 4-Benzoyl-5-(6-methoxy-2-oxo-1,2-dihydroindol-3-ylidenemethyl)-3-methyl-1H-pyrrole-2-carboxylic acid (3-pyrrolidin-1-ylpropyl)amide] |
| 27.7 | 40.3 | 7.18 | > 100 | CCN(CC)CCCNC(=O)c1[nH]c(/C=C2\C(=O)Nc3ccc(Br)cc32)c(C(=O)c2ccccc2)c1C [Example 21, 4-Benzoyl-5-(5-bromo-2-oxo-1,2-dihydroindol-3-ylidenemethyl)-3-methyl-1H-pyrrole-2-carboxylic acid (3-diethylaminopropyl)amide] |
| 27.7 | > 100 | > 20 | 21.5 | CCN(CC)CCCNC(=O)c1[nH]c(/C=C2\C(=O)Nc3ccccc32)cc1C [Example 12, 3-Methyl-5-(2-oxo-1,2-dihydroindol-3-ylidenemethyl)-1H-pyrrole-2-carboxylic acid (3-diethylaminopropyl)amide] |
| 2.67 | 53.7 | 4.5 | 71.3 | Cc1c(C(=O)NCCCN2CCCC2)[nH]c(/C=C2\C(=O)Nc3ccc(F)cc32)c1C(=O)c1ccccc1 [Example 28, 4-Benzoyl-5-(5-fluoro-2-oxo-1,2-dihydroindol-3-ylidenemethyl)-3-methyl-1H-pyrrole-2-carboxylic acid (3-pyrrolidin-1-ylpropyl)amide] |
| > 100 | 27.4 | 1.49 | > 100 | Cc1[nH]c(/C=C2\C(=O)Nc3cc(-c4cccc(C(C)C)c4)ccc32)c(C)c1C(=O)NCCN1CCCC1 [Example 79, 5-[6-(3-Isopropyl-phenyl)-2-oxo-1,2-dihydroindol-3-ylidenemethyl]-2,4-dimethyl-1H-pyrrole-3-carboxylic acid (2-pyrrolidin-1-yl-ethyl)amide] |
| 47.2 | 9.83 | – | – | CC(=O)c1c(/C=C2\C(=O)Nc3ccc(Br)cc32)[nH]c(C(=O)NCCCN2CCOCC2)c1C [Example 31, 4-Acetyl-5-(5-bromo-2-oxo-1,2-dihydroindol-3-ylidenemethyl)-3-methyl-1H-pyrrole-2-carboxylic acid (3-morpholin-4-ylpropyl)amide] |
| 4.25 | 9.33 | 1.94 | 70.6 | COc1ccc(-c2ccc3c(c2)NC(=O)/C3=C\c2[nH]c(C)c(C(=O)NCCN3CCCC3)c2C)c(OC)c1 [Example 78, 5-[6-(2,4-Dimethoxy-phenyl)-2-oxo-1,2-dihydroindol-3-ylidenemethyl]-2,4-dimethyl-1H-pyrrole-3-carboxylic acid (2-pyrrolidin-1-yl-ethyl)amide] |
| – | – | – | 21.1 | Cc1[nH]c(/C=C2\C(=O)Nc3ccc(-c4ccccc4)cc32)c(C)c1C(=O)NCCCn1ccnc1 [Example 58, 2,4-Dimethyl-5-(2-oxo-5-phenyl-1,2-dihydroindol-3-ylidenemethyl)-1H-pyrrole-3-carboxylic acid (3-imidazol-1-ylpropyl)amide] |
| 4.05 | 36.6 | > 20 | > 100 | Cc1c(C(=O)NCCCN2CCCC2)[nH]c(/C=C2\C(=O)Nc3ccccc32)c1C(=O)c1ccccc1 [Example 23, 4-Benzoyl-3-methyl-5-(2-oxo-1,2-dihydroindol-3-ylidenemethyl)-1H-pyrrole-2-carboxylic acid (3-pyrrolidin-1-ylpropyl)amide] |
| > 100 | > 100 | > 20 | > 100 | CC(=O)c1c(/C=C2\C(=O)Nc3ccc(Br)cc32)[nH]c(C(=O)NCCc2ccc(O)cc2)c1C [Example 36, 4-Acetyl-5-(5-bromo-2-oxo-1,2-dihydroindol-3-ylidenemethyl)-3-methyl-1H-pyrrole-2-carboxylic acid [2-(4-hydroxy-phenyl)-ethyl]amide] |
| 54.1 | 80.4 | > 20 | > 100 | CC(=O)c1c(/C=C2\C(=O)Nc3ccc(Br)cc32)[nH]c(C(=O)NCCN2CCCC2)c1C [Example 35, 4-Acetyl-5-(5-bromo-2-oxo-1,2-dihydroindol-3-ylidenemethyl)-3-methyl-1H-pyrrole-2-carboxylic acid (2-pyrrolidin-1-yl-ethyl)amide] |
| 3.91 | 26.5 | – | > 100 | COc1ccc2c(c1)/C(=C/c1[nH]c(C(=O)NCCCN3CCCC3)c(C)c1C(=O)c1ccccc1)C(=O)N2 [Example 27, 4-Benzoyl-5-(5-methoxy-2-oxo-1,2-dihydroindol-3-ylidenemethyl)-3-methyl-1H-pyrrole-2-carboxylic acid (3-pyrrolidin-1-ylpropyl)amide] |
| > 100 | > 100 | > 50 | > 100 | CC(=O)c1c(/C=C2\C(=O)Nc3ccc(Br)cc32)[nH]c(C(=O)NCCN2CCOCC2)c1C [Example 34, 4-Acetyl-5-(5-bromo-2-oxo-1,2-dihydroindol-3-ylidenemethyl)-3-methyl-1H-pyrrole-2-carboxylic acid (2-morpholin-4-yl-ethyl)amide] |
| > 100 | > 100 | 2.7 | 61.6 | CCCCc1ccc(-c2ccc3c(c2)NC(=O)/C3=C\c2[nH]c(C)c(C(=O)NCCN3CCCC3)c2C)cc1 [Example 75, 5-[6-(4-Butyl-phenyl)-2-oxo-1,2-dihydroindol-3-ylidenemethyl]-2,4-dimethyl-1H-pyrrole-3-carboxylic acid (2-pyrrolidin-1-yl-ethyl)amide] |
| > 100 | 46.8 | 1.2 | 0.09 | Cc1[nH]c(/C=C2\C(=O)Nc3ccc(Br)cc32)c(C)c1C(=O)NCc1ccncc1 [Example 74, 5-(5-Bromo-2-oxo-1,2-dihydroindol-3-ylidenemethyl)-2,4-dimethyl-1H-pyrrole-3-carboxylic acid (pyridin-4-ylmethyl)amide] |
| 3.98 | 26.7 | 10.1 | > 100 | CCN(CC)CCCNC(=O)c1[nH]c(/C=C2\C(=O)Nc3ccc(Br)cc32)c(C(C)=O)c1C [Example 29, 4-Acetyl-5-(5-bromo-2-oxo-1,2-dihydroindol-3-ylidenemethyl)-3-methyl-1H-pyrrole-2-carboxylic acid (3-diethylaminopropyl)amide] |
| > 100 | > 100 | 0.49 | 25 | CCc1ccc(-c2ccc3c(c2)NC(=O)/C3=C\c2[nH]c(C)c(C(=O)NCCN3CCCC3)c2C)cc1 [Example 77, 5-[6-(4-Ethyl-phenyl)-2-oxo-1,2-dihydroindol-3-ylidenemethyl]-2,4-dimethyl-1H-pyrrole-3-carboxylic acid (2-pyrrolidin-1-yl-ethyl)amide] |
| 5.31 | 16.8 | – | – | Cc1c(C(=O)NCCCN2CCCC2)[nH]c(/C=C2\C(=O)Nc3ccc(Br)cc32)c1C(=O)c1ccccc1 [Example 24, 4-Benzoyl-5-(5-bromo-2-oxo-1,2-dihydroindol-3-ylidenemethyl)-3-methyl-1H-pyrrole-2-carboxylic acid (3-pyrrolidin-1-ylpropyl)amide] |
| 23.3 | – | – | 98.1 | CCN(CC)CCCNC(=O)c1[nH]c(/C=C2\C(=O)Nc3cc(OC)ccc32)cc1C [Example 16, 5-(6-Methoxy-2-oxo-1,2-dihydroindol-3-ylidenemethyl)-3-methyl-1H-pyrrole-2-carboxylic acid (3-diethylaminopropyl)amide] |
| – | 8.59 | 0.21 | – | CCN(CC)CCNC(=O)c1c(C)[nH]c(/C=C2\C(=O)Nc3cc(-c4cccnc4)ccc32)c1C [Example 63, 2,4-Dimethyl-5-(2-oxo-6-pyridin-3-yl-1,2-dihydroindol-3-ylidenemethyl)-1H-pyrrole-3-carboxylic acid (2-diethylaminoethyl)amide] |
